# In PubChem BioAssay AID330 (DTP/NCI, 2004):
# “And” between values parts separate entries of the source, which are not always exact repeats. Identical values can stand only once. Inconclusive results and toxic doses are left out. Peptide text beside a SMILES is read from it. * marks the point of attachment. Cbz = O=C(OCc1ccccc1)*; Bn = c1ccc(C*)cc1
# System: P388 leukemia ip, CD2F1 mice, survival T/C
# Experiment: NCI In Vivo Anticancer Drug Screen. Data for tumor model P388 Leukemia (intraperitoneal) in CD2F1 (CDF1) mice
# Conditions: endpoint: median survival time, higher = longer survival
# Procedure, shortened: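 Mice carrying the transplanted tumor received test compound or vehicle. Survival was recorded in each group, and the value is the treated-group measurement divided by that of the vehicle-treated control group.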
# [1] = dose: 60.0 mg/kg/injection, schedule: Q01DX005 (ip), vehicle: saline with Tween-80
# [2] = dose: 120.0 mg/kg/injection, schedule: Q01DX005 (ip), vehicle: saline with Tween-80
# [3] = dose: 240.0 mg/kg/injection, schedule: Q01DX005 (ip), vehicle: saline with Tween-80
# [4] = dose: 6.25 mg/kg/injection, schedule: Q01DX005 (ip), vehicle: Klucel (hydroxypropylcellulose) (HPC)
# [5] = dose: 12.5 mg/kg/injection, schedule: Q01DX005 (ip), vehicle: Klucel (hydroxypropylcellulose) (HPC)
# [6] = dose: 25.0 mg/kg/injection, schedule: Q01DX005 (ip), vehicle: Klucel (hydroxypropylcellulose) (HPC)
# [7] = dose: 50.0 mg/kg/injection, schedule: Q01DX005 (ip), vehicle: Klucel (hydroxypropylcellulose) (HPC)
# [8] = dose: 100.0 mg/kg/injection, schedule: Q01DX005 (ip), vehicle: Klucel (hydroxypropylcellulose) (HPC)
# [9] = dose: 100.0 mg/kg/injection, schedule: Q04DX003 (ip), vehicle: saline with Tween-80
# [10] = dose: 200.0 mg/kg/injection, schedule: Q04DX003 (ip), vehicle: saline with Tween-80
# [11] = dose: 50.0 mg/kg/injection, schedule: Q04DX003 (ip), vehicle: saline
# [12] = dose: 100.0 mg/kg/injection, schedule: Q04DX003 (ip), vehicle: saline
# [13] = dose: 200.0 mg/kg/injection, schedule: Q04DX003 (ip), vehicle: saline
# [14] = dose: 60.0 mg/kg/injection, schedule: Q01DX005 (ip), vehicle: Klucel (hydroxypropylcellulose) (HPC)
# [15] = dose: 120.0 mg/kg/injection, schedule: Q01DX005 (ip), vehicle: Klucel (hydroxypropylcellulose) (HPC)
# [16] = dose: 240.0 mg/kg/injection, schedule: Q01DX005 (ip), vehicle: Klucel (hydroxypropylcellulose) (HPC)
# [17] = dose: 50.0 mg/kg/injection, schedule: Q01DX009 (ip), vehicle: Klucel (hydroxypropylcellulose) (HPC)
# [18] = dose: 100.0 mg/kg/injection, schedule: Q01DX009 (ip), vehicle: Klucel (hydroxypropylcellulose) (HPC)
# [19] = dose: 200.0 mg/kg/injection, schedule: Q01DX009 (ip), vehicle: Klucel (hydroxypropylcellulose) (HPC)
# [20] = dose: 50.0 mg/kg/injection, schedule: Q01DX005 (ip), vehicle: saline with Tween-80
# [21] = dose: 100.0 mg/kg/injection, schedule: Q01DX005 (ip), vehicle: saline with Tween-80
# [22] = dose: 200.0 mg/kg/injection, schedule: Q01DX005 (ip), vehicle: saline with Tween-80
structure (smiles),measurement,setting,value
O=C1Nc2cccnc2NC2=C1CSC2,T/C,[1],110 % of control
same,T/C,[2],97 % of control
same,T/C,[3],98 % of control
CN(C)CCOC(=O)Nc1ccccc1C(F)(F)F,T/C,[1],99 % of control
same,T/C,[2],95 % of control
COc1ccccc1/C=C(/C)[N+](=O)[O-],T/C,"dose: 10.0 mg/kg/injection, schedule: Q01DX010 (ip), vehicle: saline",109 % of control
same,T/C,"dose: 14.0 mg/kg/injection, schedule: Q01DX010 (ip), vehicle: saline",90 % of control
same,T/C,"dose: 22.0 mg/kg/injection, schedule: Q01DX010 (ip), vehicle: saline",100 % of control
same,T/C,"dose: 33.0 mg/kg/injection, schedule: Q01DX010 (ip), vehicle: saline",109 % of control
same,T/C,"dose: 50.0 mg/kg/injection, schedule: Q01DX010 (ip), vehicle: saline",100 % of control
same,T/C,"dose: 75.0 mg/kg/injection, schedule: Q01DX010 (ip), vehicle: saline",118 % of control
CC(C)CCC[C@@H](C)[C@H]1CC[C@H]2[C@@H]3CC[C@H]4C[C@@H](N)CC[C@]4(C)[C@H]3CC[C@]12C,T/C,[4],98 % of control
same,T/C,[5],97 % of control
same,T/C,[6],95 % of control
same,T/C,[7],112 % of control
same,T/C,[8],109 % of control
CC(=O)Nc1ccc(N=NNc2ccccc2)cc1,T/C,"dose: 3.12 mg/kg/injection, schedule: Q01DX001 (ip), vehicle: Klucel (hydroxypropylcellulose) (HPC)",100 % of control
same,T/C,"dose: 6.25 mg/kg/injection, schedule: Q01DX001 (ip), vehicle: Klucel (hydroxypropylcellulose) (HPC)",93 % of control
same,T/C,"dose: 12.5 mg/kg/injection, schedule: Q01DX001 (ip), vehicle: Klucel (hydroxypropylcellulose) (HPC)",99 % of control and 97 % of control
C1=C(c2ccccc2)N=C(c2nncc3ccccc23)C1(c1ccccc1)c1ccccc1,T/C,[9],101 % of control
same,T/C,[10],101 % of control
same,T/C,"dose: 400.0 mg/kg/injection, schedule: Q04DX003 (ip), vehicle: saline with Tween-80",96 % of control
CC1=C(/C=C/C(C)=C/C=C/C(C)=C/C(=O)O)C(C)(C)CCC1,T/C,"dose: 32.0 mg/kg/injection, schedule: Q01DX005 (ip), vehicle: saline with Tween-80",119 % of control
same,T/C,"dose: 64.0 mg/kg/injection, schedule: Q01DX005 (ip), vehicle: saline with Tween-80",111 % of control
same,T/C,[9],105 % of control
same,T/C,"dose: 128.0 mg/kg/injection, schedule: Q01DX005 (ip), vehicle: saline with Tween-80",103 % of control
same,T/C,[10],115 % of control
C1CN(/N=N/N2CCC2)C1,T/C,[4],98 % of control
same,T/C,[5],100 % of control
same,T/C,[6],102 % of control
O=C(c1ccc(Br)cc1)c1ccc(Br)cc1,T/C,"dose: 10.0 mg/kg/injection, schedule: Q01DX009 (ip), vehicle: other",100 % of control
same,T/C,"dose: 20.0 mg/kg/injection, schedule: Q01DX009 (ip), vehicle: other",105 % of control
same,T/C,"dose: 40.0 mg/kg/injection, schedule: Q01DX009 (ip), vehicle: other",92 % of control
same,T/C,[11],99 % of control
same,T/C,"dose: 80.0 mg/kg/injection, schedule: Q01DX009 (ip), vehicle: other",92 % of control
same,T/C,[12],93 % of control
same,T/C,"dose: 160.0 mg/kg/injection, schedule: Q01DX009 (ip), vehicle: other",105 % of control
same,T/C,[13],94 % of control
same,T/C,"dose: 320.0 mg/kg/injection, schedule: Q01DX009 (ip), vehicle: other",100 % of control
same,T/C,"dose: 400.0 mg/kg/injection, schedule: Q04DX003 (ip), vehicle: saline",95 % of control
CCN1/C(=C\C2=C([O-])C(=C/c3sc4ccccc4[n+]3CC)/C2=O)Sc2ccccc21,T/C,[14],103 % of control
same,T/C,[15],119 % of control
same,T/C,[16],86 % of control
CC(C)C(NC(=O)C(CSCc1ccccc1)NC(=O)OCc1ccccc1)C(=O)O (stereo unspecified) (Cbz-Cys(Bn)-Val-OH; configuration not given here),T/C,[7],97 % of control
same,T/C,[8],88 % of control
CSCCC(NC(C)=O)C(C)=O (stereo unspecified),T/C,"dose: 50.0 mg/kg/injection, schedule: Q01DX009 (ip), vehicle: saline",110 % of control
same,T/C,"dose: 100.0 mg/kg/injection, schedule: Q01DX009 (ip), vehicle: saline",109 % of control
same,T/C,"dose: 200.0 mg/kg/injection, schedule: Q01DX009 (ip), vehicle: saline",105 % of control
CSc1nc(NC2OCC(O)C(O)C2O)c(C=O)c(=O)[nH]1 (stereo unspecified),T/C,"dose: 15.0 mg/kg/injection, schedule: Q01DX005 (ip), vehicle: saline with Tween-80",97 % of control
same,T/C,"dose: 30.0 mg/kg/injection, schedule: Q01DX005 (ip), vehicle: saline with Tween-80",109 % of control
same,T/C,[1],95 % of control
Cc1cc[c]([Bi]([c]2ccc(C)cc2)[c]2ccc(C)cc2)cc1,T/C,[14],105 % of control
same,T/C,[15],96 % of control
CC(C)(C)n1nnnc1Cl,T/C,[17],107 % of control
same,T/C,[18],102 % of control
same,T/C,[19],107 % of control
CCOC(=O)C1(C(=O)OCC)CCC1,T/C,[17],100 % of control
same,T/C,[18],92 % of control
same,T/C,[19],96 % of control
same,T/C,"dose: 400.0 mg/kg/injection, schedule: Q01DX009 (ip), vehicle: Klucel (hydroxypropylcellulose) (HPC)",101 % of control
O=C(CCCl)Nc1ccccc1C(=O)CCc1cn(C(=O)CCCl)c2ccccc12,T/C,[1],107 % of control
same,T/C,[2],102 % of control
same,T/C,[3],96 % of control
O=S(=O)(/C=C\c1ccccc1)/C=C/c1ccc(F)cc1,T/C,[20],111 % of control
same,T/C,[21],97 % of control
same,T/C,[22],94 % of control
CCN(CC)CCOc1ccc(C=Nc2ccc3c4ccccc4n(CC)c3c2)cc1,T/C,"dose: 100.0 mg/kg/injection, schedule: Q01DX001 (ip), vehicle: Klucel (hydroxypropylcellulose) (HPC)",100 % of control
same,T/C,"dose: 200.0 mg/kg/injection, schedule: Q01DX001 (ip), vehicle: Klucel (hydroxypropylcellulose) (HPC)",100 % of control
same,T/C,"dose: 400.0 mg/kg/injection, schedule: Q01DX001 (ip), vehicle: Klucel (hydroxypropylcellulose) (HPC)",99 % of control
O.O=C(O)CN(CCN(CC(=O)O)CC(=O)O)CC(=O)O.[Rh+2],T/C,"dose: 100.0 mg/kg/injection, schedule: Q01DX009 (ip), vehicle: saline sonified",90 % of control
same,T/C,"dose: 200.0 mg/kg/injection, schedule: Q01DX009 (ip), vehicle: saline sonified",90 % of control
same,T/C,"dose: 400.0 mg/kg/injection, schedule: Q01DX009 (ip), vehicle: saline sonified",95 % of control
Cc1ncc([N+](=O)[O-])n1CCn1nnc2c1CCCC2,T/C,"dose: 25.0 mg/kg/injection, schedule: Q04DX003 (ip), vehicle: saline",100 % of control and 109 % of control
same,T/C,[11],100 % of control and 109 % of control
same,T/C,[12],115 % of control and 96 % of control
same,T/C,[13],99 % of control and 115 % of control
CC(/C=C/c1ccc(C)cc1)=N\NC(N)=O,T/C,[20],103 % of control
same,T/C,[21],102 % of control
same,T/C,[22],93 % of control
NC1(P(=O)(O)O)CCCCC1,T/C,"dose: 50.0 mg/kg/injection, schedule: Q01DX009 (ip), vehicle: saline with Tween-80",116 % of control
same,T/C,"dose: 100.0 mg/kg/injection, schedule: Q01DX009 (ip), vehicle: saline with Tween-80",111 % of control
same,T/C,"dose: 200.0 mg/kg/injection, schedule: Q01DX009 (ip), vehicle: saline with Tween-80",111 % of control
CC(C)=CCc1c2c(c3occ(-c4ccc(O)cc4)c(=O)c3c1O)C=CC(C)(C)O2,T/C,"dose: 25.0 mg/kg/injection, schedule: Q01DX009 (ip), vehicle: Klucel (hydroxypropylcellulose) (HPC)",90 % of control
same,T/C,[17],90 % of control
same,T/C,[18],88 % of control
same,T/C,[19],88 % of control
OC(CCl)CN1CCN(CC(O)CCl)CC1 (stereo unspecified),T/C,"dose: 25.0 mg/kg/injection, schedule: Q01DX005 (ip), vehicle: water",150 % of control
same,T/C,"dose: 100.0 mg/kg/injection, schedule: Q01DX005 (ip), vehicle: water",90 % of control and 92 % of control
CCCCCCCc1cc(=O)[nH]c(=S)[nH]1,T/C,[14],96 % of control
same,T/C,[15],95 % of control
same,T/C,[16],89 % of control
